Reference: patent US20240139176A1, “METHODS OF TREATING OR PREVENTING CACHEXIA” (Toray Industries, Inc., priority 2019, published 2024)
Counter-ions that a name gives are not always drawn.

What was measured:
[1] = test system: tumor-bearing mouse model (non-small cell lung cancer model), A549 cells planted to nude mice; experiment: Food intake and body weight in tumor-bearing mouse model (non-small cell lung cancer model), dosing from Day 23 after A549 plantation; assay type: in vivo; conditions: oral daily for 28 days (Day 23 to Day 50), Compound 1 0.25 mg/kg, anamorelin hydrochloride 30 mg/kg, combined 0.25 + 30 mg/kg, Dunnett's test P<0.05; for cumulative food intake in the period of administration, compared to distilled water-treated group: FIG. 3; for body weight after 28-day administration, compared to distilled water-treated group: FIG. 4
Description: Using tumor-bearing model animals where human alveolar basement epidermal gland cancer cells, A549 cells, were planted to nude mice, examination was performed about the drug efficacy on the food intake and body weight when Compound 1 and anamorelin hydrochloride were combined.
(§1) Subculture of A549 cells was performed using a 10% FBS-containing RPMI1640 culture medium. In evaluation of drug efficacy, 7-week old female BALB/C slc/nu/nu mice (Japan SLC, Inc.) were purchased, and used after habituated for one week. Cancer-bearing model animals were prepared as follows. Specifically, 2.5×10^7 cells of A549 cells were planted to the right abdominal of each mouse by subdermal administration. On Day 22 from the cell plantation, the mice were divided into groups to have an equal averaged tumor volume.
The effects of a variety of compounds on food intake and body weight were examined as follows. Specifically, for 28 days from Day 23 to Day 50 from the cell plantation, the compounds were orally administered daily, and the food intake and the body weight measured at the same time. For the doses of the compounds, the dose of Compound 1 was 0.25 mg/kg (13 examples), and the dose of anamorelin hydrochloride was 30 mg/kg (13 examples). In combined administration of Compound 1 and anamorelin hydrochloride, 0.25 mg/kg of Compound 1 and 30 mg/kg of anamorelin hydrochloride were used, where Compound 1 and anamorelin hydrochloride preliminarily dissolved in distilled water were mixed for preparation (13 examples). As a control, distilled water was administered in the same manner (13 examples). The food intake was calculated by subtracting the weight of the lid of each single cage containing food on the previous day from the weight of the lid of the single cage containing food on the day of measurement.
In FIG. 3, the ordinate represents the cumulative food intake in the period of administration of the compounds (from the start of administration to the day next to the final day of administration). In FIG. 4, the ordinate represents the body weight on Day 29 from the start of administration of the compounds (the day next to the final day of administration) (after 28-day administration). In the abscissas of FIGS. 3 and 4, “Distilled water” represents distilled water-treated group, “Compound 1” represents Compound 1-treated group, “Anamorelin” represents anamorelin hydrochloride-treated group, and “Combined administration” represents Compound 1 and anamorelin hydrochloride combined-treatment group. In FIGS. 3 and 4, the mark “*” represents a statistical significance (*: P<0.05) compared to distilled water-treated group (Dunnett's multiple test).

[2] = test system: tumor-bearing mouse model (non-small cell lung cancer model having ghrelin resistance), A549 cells planted into nude mice; experiment: Food intake and body weight in tumor-bearing mouse model (non-small cell lung cancer model having ghrelin resistance), dosing from Day 43 after A549 plantation; assay type: in vivo; conditions: oral daily for 28 days (Day 43 to Day 70), Compound 1 0.25 mg/kg, anamorelin hydrochloride 30 mg/kg, combined 0.25 + 30 mg/kg, Dunnett's test P<0.05; for cumulative food intake in the period of administration, compared to distilled water-treated group: FIG. 1; for body weight after 28-day administration, compared to distilled water-treated group: FIG. 2
Description: Using tumor-bearing model animals where human alveolar basement epidermal gland cancer cells, A549 cells, were planted into nude mice, examination was performed about drug efficacy on the food intake and the body weight when Compound 1 and anamorelin hydrochloride (MedChemExpress LLC) were combined.
as §1, with “Tumor-bearing” for “Cancer-bearing”, “41” for “22”
The effects of a variety of compounds on food intake and body weight were examined as follows. Specifically, for 28 days from Day 43 to Day 70 from the cell plantation, the compounds were orally administered daily, and the food intake and the body weight were measured at the same time. For the doses of the compounds, the dose of Compound 1 was 0.25 mg/kg (9 examples), and that of anamorelin hydrochloride was 30 mg/kg (9 examples). In combined administration of Compound 1 and anamorelin hydrochloride, 0.25 mg/kg of Compound 1 and 30 mg/kg of anamorelin hydrochloride were used, where Compound 1 and anamorelin hydrochloride preliminarily dissolved in distilled water mixed for preparation (9 examples). As a control, distilled water was administered in the same manner (9 examples). The food intake was calculated by subtracting the weight of the lid of each single cage containing food on the previous day from the weight of the lid of the single cage containing food on the day of measurement.
In FIG. 1, the ordinate represents the cumulative food intake in the period of administration of the compounds (from the start of administration to the day next to the final day of administration). In FIG. 2, the ordinate represents the body weight on Day 29 from the start of administration of the compounds (the day next to the final day of administration) (after 28-day administration). In the abscissas of FIGS. 1 and 2, “Distilled water” represents distilled water-treated group, “Compound 1” represents Compound 1-treated group, “Anamorelin” represents anamorelin hydrochloride-treated group, and “Combined administration” represents Compound 1 and anamorelin hydrochloride-combined treatment group. In FIGS. 1 and 2, the mark “*” represents a statistical significance (*: P<0.05) compared to distilled water-treated group (Dunnett's multiple test).

[3] = test system: tumor-bearing mouse model (skin cancer model), B16/F10 cells planted to mice; experiment: Food intake and body weight in tumor-bearing mouse model (skin cancer model), B16/F10 cells; assay type: in vivo; conditions: oral daily for 11 days (Day 5 to Day 15), Compound 1 0.05 mg/kg, anamorelin hydrochloride 30 mg/kg, combined 0.05 + 30 mg/kg; for cumulative food intake in the period of administration, compared to distilled water-treated group: Dunnett's test P<0.05, FIG. 5; for body weight after 11-day administration, compared to distilled water-treated group: FIG. 6
Description: Using tumor-bearing model animals where mouse malignant melanoma cells, B16/F10 cells, were planted to mice, and examination performed about the drug efficacy to the food intake and the body weight when Compound 1 and anamorelin hydrochloride were combined.
Subculture of B16/F10 cells was performed using a DMEM culture medium containing 10% FBS and penicillin-streptomycin. In evaluation of the drug efficacy, 6-weeks old female C57BL/6J mice (Charles River Laboratories, Japan, Inc.) when introduced were used after habituated for one week. The tumor-bearing model animals were prepared as follows. Specifically, 5×10^6 cells of B16/F10 cells were planted to the right abdominal of each mouse by subdermal administration. On Day 5 from the cell plantation, the mice were divided into groups to have an equal averaged tumor volume.
The effects of a variety of compounds on food intake and body weight were examined as follows. Specifically, for 11 days from Day 5 to Day 15 from the cell plantation, the compounds were orally administered daily, and the food intake and the body weight measured at the same time. For the doses of the compounds, the dose of Compound 1 was 0.05 mg/kg (8 examples), and that of anamorelin hydrochloride was 30 mg/kg (8 examples). In combined administration of Compound 1 and anamorelin hydrochloride, 0.05 mg/kg of Compound 1 and 30 mg/kg of anamorelin hydrochloride were used, where Compound 1 and anamorelin hydrochloride preliminarily dissolved in distilled water were mixed for preparation (8 examples). As a control, distilled water was administered in the same manner (8 examples). The food intake was calculated by subtracting the weight of the lid of each single cage containing food on the previous day from the weight of the lid of the single cage containing food on the day of measurement. Eight individuals of each group were divided into two cases, in each of which 4 individuals were raised. The food intake per one mouse was calculated by dividing the total food intake of the 2 cases by 8.
In FIG. 5, the ordinate represents the cumulative food intake in the period of administration of the compounds (from the start of administration to the day next to the final day of administration). In FIG. 6, the ordinate represents the body weight on Day 12 from the start of administration of the compounds (the day next to the final day of administration) (after 11-day administration). In the abscissas in FIGS. 5 and 6, “Distilled water” represents distilled water-treated group, “Compound 1” represents Compound 1-treated group, “Anamorelin” represents anamorelin hydrochloride-treated group, and “Combined administration” represents Compound 1 and anamorelin hydrochloride-combined treatment group. […]

[4] = third phase clinical trials; cited from earlier work

Compound	cumulative food intake in the period of administration, compared to distilled water-treated group [1]	body weight after 28-day administration, compared to distilled water-treated group [1]	cumulative food intake in the period of administration, compared to distilled water-treated group [2]	body weight after 28-day administration, compared to distilled water-treated group [2]	cumulative food intake in the period of administration, compared to distilled water-treated group [3]	body weight after 11-day administration, compared to distilled water-treated group [3]	lean body mass [4]
CN(C(=O)/C=C/c1ccoc1)[C@@H]1CC[C@@]2(O)[C@H]3Cc4ccc(O)c5c4[C@@]2(CCN3CC2CC2)[C@H]1O5 [Compound 1, (−)-17-(cyclopropylmethyl)-3,14β-dihydroxy-4,5α-epoxy-6β-[N-methyl-trans-3-(3-furyl)acrylamide]morphinanhydrochloride]	statistically significant increase of food intake was exhibited	statistically significant increase of body weight was exhibited	any statistically significant increase of food intake was not observed	any statistically significant increase in body weight was not observed	any statistically significant increase food intake was not observed	a tendency of increasing body weight was not exhibited	–
CN(C)N(C)C(=O)[C@@]1(Cc2ccccc2)CCCN(C(=O)[C@@H](Cc2c[nH]c3ccccc23)NC(=O)C(C)(C)N)C1 [anamorelin hydrochloride, 2-amino-N-[(1R)-2-[(3R)-3-benzyl-3-(N,N′,N′-trimethylhydrazinocarbonyl)piperidin-1-yl-]-1-(1H-indol-3-ylmethyl)-2-oxoethyl]-2-methylpropionamide]	a tendency of increasing food intake was observed	statistically significant increase of body weight was exhibited	any statistically significant increase of food intake was not observed	any statistically significant increase in body weight was not observed	any statistically significant increase food intake was not observed	a tendency of increasing body weight was not exhibited	significantly increases lean body mass
